Test results published in patent US5807861A, “Amine substituted xanthinyl compounds” (Cell Therapeutics, Inc., priority 1995, dated 1998).

Legend:
293-EBNA cells = experiment: 293-EBNA cell viability (alamarBlue); type: cell-based
Description: The effect of respective inventive compounds on the viability of 293-EBNA cells was measured by a colorimetric assay that uses the alamarBlue® dye (purchased from Alamar Biosciences, Inc.) to report cell proliferation, viability and cytotoxicity. This dye is an oxidation-reduction (Redox) indicator that changes color in response to chemical reduction of growth medium resulting from cell growth. The general procedure involves adding alamar-Blue® in an amount equal to 10% of the culture volume, returning the culture to incubator for four hours, and measuring the absorbance at 570 nm after subtraction of background absorbance at 600 nm.

PAPH = conditions: specific activation pathway that does not involve PI; cited from earlier work
[1] = test system: polymorphonuclear leukocytes; conditions: U.S. Pat. No. 4,636,507; cited from earlier work
certain cytokines = conditions: U.S. Pat. Nos. 4,965,271 and 5,096,906; cited from earlier work
[2] = test system: tumor necrosis factor (TNF); conditions: PTX recipients; cited from earlier work
thymocytes = experiment: thymocyte proliferation co-stimulated with Con A and IL-2; type: cell-based, mouse (Balb/C); conditions: co-stimulated with Con A and IL-2, various concentrations
Description: 3506, 3556, 3563, 3576, 3581, 3582 and 3584 on thymocyte proliferation and activation, co-stimulated with Concanavalin A (Con A) and interleukin-2 (IL-2), at various concentrations of the compounds (IC50). Con A and IL-2 together stimulate T cell proliferation and differentiation.
Thymuses, obtained from normal, female Balb/C mice, were dissociated and plated into 96-well plates at a density of 2×10^5 cells/well. Con A ([…]) and IL-2 (15 U/ml) were added to the wells. The cells were incubated for 4 days at 37° C. On day 4, the cells were pulsed with tritiated thymidine and incubated for an additional 4 hours. Incorporated tritiated thymidine of harvested cells was determined in a liquid scintillation counter. Results plotted as dose concentration versus proliferation for inventive compounds nos. 3506, 3556, 3563, 3576, 3581, 3582 and 3584 are shown in FIGS. 6 (3506), 7 (3556), 8 (3563), 9 (3576), 10 (3581 and 3582) and 11 (3584). Respective concentrations of inventive compound (shown in the figures) were added two hours prior to Con A and IL-2 activation. Background counts were less than 200 cpm.

human stromal cells [3] = experiment: PDGF-induced proliferation in human stromal cells; type: cell-based; conditions: 50 ng/ml PDGF; compound added one hour prior; various concentrations (FIG. 1)
Description: 3506 on PDGF-induced proliferation in human stromal cells. Procedurally, human stromal cells were starved in serum-free media for 24 hours and then stimulated with 50 ng/ml PDGF. Compound no. 3506 was added at various concentrations one hour prior to PDGF stimulation and pulsed for 24 hours. Cells were harvested and cell proliferation measured having background counts (i.e., starved cells) at about 10% of control levels.

[4] = test system: mouse bone marrow cells (CFU-GM); experiment: CFU-GM colony assay, effect on normal mouse bone marrow cells; type: cell-based; conditions: for effect on normal cells compared to known chemotherapeutic compounds: in vitro, vs vinblastine, 5-fluorouracil, doxorubicin or cisplatinum; for cytotoxicity to normal mouse marrow cells: 8 h incubation, 7 days colony growth
From the text: This example illustrates a method for examining an effect of the inventive compounds, showing potential as cancer therapies, on normal cells. This assay has been used clinically to evaluate recovery of patients' marrow following chemotherapy or radiation. In this specific example, inventive compounds nos.
Mouse bone marrow cells are useful in this assay because they produce colonies, which can later be counted, in culture. The colonies are called colony forming unit-granulocyte macrophage (CFU-GM) and depend on a source of colony stimulating factor for growth.
Cells were cultured with inventive compounds nos. 3563, 3576, 3581, 3584 and 4500, to comparatively evaluate an effect on normal cells of inventive compounds identified as potential cancer therapies. Procedurally, cells were incubated for 8 hours with various concentrations of these compounds. A negative control without any compound was simultaneously prepared. After 8 hours, the incubated cells were washed thoroughly and a consistent number were subsequently plated to obtain CFU-GM. Colonies were permitted to grow for 7 days at 37° C., in 5% CO2. After 7 days of growth, colony growths were counted microscopically. Data obtained in this assay for inventive compounds nos. 3563, 3576, 3581, 3584 and 4500 are plotted in FIGS. 12, 13, 14, 15 and 16, respectively. The data in the figures are shown to compare the colonies counted for cells incubated with varying concentrations of the compounds tested against the negative control, without compound. At concentrations ranging from 5 to 30 μM, more colonies existed for cells incubated with the inventive potential cancer compound than with known, chemotherapeutic agents. Compound no.

Balb/3T3 cells = experiment: Balb/3T3 viability (cytotoxicity) assay with BCECF; type: cell-based; conditions: BCECF fluorescence; concentrations shown in FIGS. 1, 2 and 4; control value of 100%
Description: In conjunction with the Balb/3T3 proliferation assay, a related viability assay was conducted to assess the cytotoxicity of compounds which inhibit proliferation in this system. The assay protocol was identical to that performed above except that tritiated thymidine was not added after the 24 hour incubation with PDGF. In this cytotoxicity assay, after incubating the cells, a 10 μM solution of BCECF was added and the cells were incubated for 30 minutes at 37° C. Following this incubation, BCECF was replaced with PBS and the plate read for fluorescence in a Millipore cytofluorometer. Data obtained was plotted as a percent of control versus concentration of inventive compound tested. FIGS. 3 and 5 represent the results of this viability assay, for compounds nos. 3556 and 4500, respectively.

JR-CSF strain of HIV-1 = experiment: JR-CSF HIV-1 infection of human peripheral blood lymphocytes (p24 antigen ELISA); type: cell-based, HIV-1 (in human PBL); conditions: 10 and 20 μM
Description: In a protocol for infecting a PBL cell suspension, JR-CSF HIV-1 was clarified at low-speed centrifugation (2,000-3,000 rpm) or filtration and stored in aliquots at -70° C. To maintain consistent titers, HIV-1 aliquots were not subjected to repeated freezing and thawing and any remainder was discarded. Virus aliquots were thawed at room temperature or under cold running water for more rapid thawing and maintained in ice after thawing. Just prior to infection of PBL cells, the supernatant or dilution were warmed to room temperature.
Human PBL cells taken from a suitable donor were centrifuged down at 1000 rpm for 5-10 minutes at room temperature. While cells were spinning, the virus inoculum was prepared in medium by adding 10 μg/ml Polybrene®. The centrifuged cells were resuspended in virus inoculum, using 1 ml of virus inoculum per 10^7 cells. A more efficient HIV-1 infection is obtained with smaller amounts of inoculum. The cells were incubated at 37° C. in the presence of virus inoculum for 2 hours, shaking the suspension every half hour. After 2 hours, the suspension was spun down, the virus inoculum removed and the cells were washed with 10 ml of fresh media.
The infected cells, inoculated with virus at a concentration of 10 ng virus/10^6 PBL, were washed and resuspended in growth medium ([…] RPMI/20 % FBS/10 units/ml IL-2). […]

[5] = test system: mouse femoral marrow CFU-GM; conditions: in vivo
From the text: Mouse spleen conditioned-medium, at a concentration of 2%, was used in this assay. The medium and semi-solid culture mix were procured from Stem Cell Technologies in Vancouver, BC.

human stromal cells [6] = experiment: Comparative: PDGF-BB-induced proliferation in human stromal cells; type: cell-based; conditions: 50 ng/ml PDGF-BB; drugs added one hour prior (FIG. 23)
Description: Human stromal cells were starved in serum-free media for 24 hours and then stimulated with 50 ng/ml PDGF-BB. The drugs were added at various concentrations one hour prior to PDGF stimulation. Tritiated thymidine was added at the time of PDGF stimulation and pulsed for 24 hours. Cells were harvested and cell proliferation measured (FIG. 23). Background counts (i.e., starved cells) were about 10% of control levels.

## CCCCCCN(CCCCCC)CCCCCCCCCCCn1c(=O)c2c(ncn2C)n(C)c1=O [compound 3590]
293-EBNA cells
  concentration at which there is still little cytotoxicity: > 32 µM

## CC(=O)CCCCn1c(=O)c2c(ncn2C)n(C)c1=O [PTX, 1-(5-oxohexyl)-3,7-dimethylxanthine]
PAPH
  effect on PAPH: blocks PAPH
[1]
  chemotaxis in polymorphonuclear leukocytes responding to chemotaxis stimulation: enhance chemotaxis
Certain cytokines
  effect on activity of certain cytokines to affect chemotaxis: inhibit activity of certain cytokines
[2]
  TNF levels in normal volunteers: TNF levels were higher

## CCCCCCCCCCCCCCNCCCCCCCCCCCn1c(=O)c2c(ncn2C)n(C)c1=O [compound 3582]
thymocytes
  effect on thymocyte proliferation and activation: inhibitive effect

## COc1cc(CNCCCCCCCCCCCn2c(=O)c3c(ncn3C)n(C)c2=O)cc(OC)c1OC [compound 3593]
293-EBNA cells
  concentration at which there is still little cytotoxicity: > 32 µM

## CCCCCCCCCCCNCCCCCCn1c(=O)c2c(ncn2C)n(C)c1=O [Compound no. 3506]
thymocytes
  effect on thymocyte proliferation and activation: inhibitive effect
Human stromal cells [3]
  inhibition of PDGF-induced proliferation: inhibition of PDGF-induced proliferation

## CCCCCCCCCCCCCCCCNCCCCCCCCCCCn1c(=O)c2c(ncn2C)n(C)c1=O [compound 3584]
[4]
  effect on normal cells compared to known chemotherapeutic compounds: less deleterious to normal cells
thymocytes
  effect on thymocyte proliferation and activation: inhibitive effect

## CCCCCCCCCCCCN(C)CCCCCCCCCCCn1c(=O)c2c(ncn2C)n(C)c1=O [compound 3576]
[4]
  effect on normal cells compared to known chemotherapeutic compounds: less deleterious to normal cells
thymocytes
  effect on thymocyte proliferation and activation: inhibitive effect

## CCCCCCCCNCCCCCCCCCCCn1c(=O)c2c(ncn2C)n(C)c1=O [compound 3556, 1-(11-octylaminoundecyl)-3,7-dimethylxanthine]
Balb/3T3 cells
  cytotoxicity at the concentrations that inhibit proliferation: not cytotoxic to any cells
293-EBNA cells
  concentration at which cytotoxicity becomes significant: > 10 µM
thymocytes
  effect on thymocyte proliferation and activation: inhibitive effect
JR-CSF strain of HIV-1
  effect on HIV-1 viral infection: virtually eliminated viral infection

## O=c1[nH]cc(F)c(=O)[nH]1 [5-fluorouracil]
[5]
  CFU-GM detectable in mouse femoral marrow: no CFU-GM were detectable

## CC(O)CCCCn1c(=O)c2c(ncn2C)n(C)c1=O (centres unmarked) [M1, 1-(5-hydroxyhexyl)-3,7-dimethylxanthine]
[1]
  chemotaxis in polymorphonuclear leukocytes responding to chemotaxis stimulation: enhance chemotaxis

## CCCCCCN(C)CCCCCCCCCCCn1c(=O)c2c(ncn2C)n(C)c1=O [compound 4500]
Balb/3T3 cells
  cytotoxicity at the concentrations that inhibit proliferation: not cytotoxic to any cells
293-EBNA cells
  concentration at which there is still little cytotoxicity: > 32 µM
[4]
  cytotoxicity to normal mouse marrow cells: virtually no toxicity at elevated concentrations for the normal mouse marrow cells

## CC(=O)CCCCCCn1c(=O)c2c(ncn2C)n(C)c1=O [A, 1-(7-oxooctyl)-3,7-dimethylxanthine]
Human stromal cells [6]
  concentrations at which activity on PDGF-induced proliferation is apparent: millimolar concentrations

## CCCCCCCCCCNCCCCCCCCCCCn1c(=O)c2c(ncn2C)n(C)c1=O [compound 3581]
[4]
  effect on normal cells compared to known chemotherapeutic compounds: less deleterious to normal cells
thymocytes
  effect on thymocyte proliferation and activation: inhibitive effect

## CCCCCCCCCCCCNCCCCCCCCCCCn1c(=O)c2c(ncn2C)n(C)c1=O [Compound no. 3563]
[4]
  cytotoxicity to normal mouse marrow cells: most cytotoxic to proliferative potential of the mouse marrow cells
  effect on normal cells compared to known chemotherapeutic compounds: less deleterious to normal cells
thymocytes
  effect on thymocyte proliferation and activation: inhibitive effect

## CC(CCCCn1c(=O)c2c(ncn2C)n(C)c1=O)N(C)C (centres unmarked) [B, 1-(5-dimethylaminohexyl)-3,7-dimethylxanthine]
Human stromal cells [6]
  concentrations at which activity on PDGF-induced proliferation is apparent: millimolar concentrations
